Data as given in patent US12391648B2, “Pyridyloxy thioester derivative and preparation method therefor, herbicidal composition, and application” (Qingdao Kingagroot Chemical Compound Co., Ltd., priority 2018, dated 2025).

How the values were obtained:
Japonica rice = assay: Post-emergence test experiment (Table 4), crop safety; type: in vivo; details: after 3 weeks
Description: (§1) The activity level standard of harmful plants destruction (i. e. growth inhibition rate) is as follows: • Level 5: the growth inhibition rate is greater than 85%; • Level 4: the growth inhibition rate is equal to or greater than 60% and less than 85%; • Level 3: the growth inhibition rate is equal to or greater than 40% and less than 60%; • Level 2: the growth inhibition rate is equal to or greater than 20% and less than 40%; • Level 1: the growth inhibition rate is equal to or greater than 5% and less than 20%; • Level 0: the growth inhibition rate is less than 5%;
(§2) The above described growth inhibition rate is fresh weight inhibition rate.
(§3) Post-emergence test experiment: Monocotyledonous and dicotyledonous weed seeds and main crop seeds (i. e. wheat, corn, rice, soybean, cotton, oilseed, millet and sorghum.) were put into a plastic pot loaded with soil. Then covered with 0.5-2 cm soil, the seeds were allowed to grow in good greenhouse environment. The test plants were treated at 2-3 leaf stage 2 weeks after sowing. The test compounds of the invention were dissolved with acetone respectively, then added with tween-80, and using 1.5 liters per hectare of an emulsible concentrate of methyl oleate as a synergist, and diluted by certain amount of water to certain concentration. The solution was sprayed to the plants with a sprayer. Then the plants were cultured for 3 weeks in the greenhouse, and the experiment result of weed controlling effect after 3 weeks was listed in tables 3-4.
(§4) […] Echinochloa crusgalli and Cyperus iria were collected from Ningxia Hui Autonomous Region of China, which had evolved resistance to ALS inhibiting herbicides. • Control compound A:

Indica rice = assay: as above; type: in vivo; details: after 3 weeks
Description: as §1, §2, §3, §4

rice = details: known compound; cited from earlier work
[1] = test system: ALS resistant Cyperus iria; assay: Post-emergence test experiment (Table 4), weed control; type: in vivo; details: after 3 weeks
Description: as §1, §2, §3, §4

[2] = test system: ALS resistant Echinochloa crusgalli; assay: as above; type: in vivo; details: after 3 weeks
Description: as §1, §2, §3, §4

Monochoria vaginalis [3] = assay: Post-emergence test experiment (Table 3, 1000 g/ha); type: in vivo; details: post-emergence spray, after 3 weeks, fresh weight inhibition
How it was run: (§5)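 Activity graded levels 0-5 by fresh-weight inhibition (level 5 above 85%, level 0 below 5%), assessed 3 weeks after treatment. Plants grown in greenhouse pots were sprayed post-emergence at 2-3 leaves using acetone/tween-80 solutions with methyl oleate synergist (1.5 L/ha).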

Digitaria sanguinalis = assay: as above; type: in vivo; details: post-emergence spray, after 3 weeks, fresh weight inhibition
How it was run: as §5

Abutilon theophrasti = assay: as above; type: in vivo; details: post-emergence spray, after 3 weeks, fresh weight inhibition
How it was run: as §5

Galium spurium = assay: as above; type: in vivo; details: post-emergence spray, after 3 weeks, fresh weight inhibition
How it was run: as §5

Setaria viridis = assay: as above; type: in vivo; details: post-emergence spray, after 3 weeks, fresh weight inhibition
How it was run: as §5

Leptochloa chinensis = assay: as above; type: in vivo; details: post-emergence spray, after 3 weeks, fresh weight inhibition
How it was run: as §5

rice (japonica rice) = assay: Transplanted rice safety evaluation; type: in vivo; details: 1000 g/ha, transplanted 3-leaf stage japonica rice, treated 5 days after transplantation, 21 days after treatment
Description: as §1
(§6) Transplanted rice safety evaluation and weed control effect evaluation in rice field:
In addition, the rice field soil that loaded into the 1/1,000,000 ha pot was leveled to keep water storage at 3-4 cm depth. The 3-leaf stage rice (japonica rice) was transplanted at 3 cm of transplanting depth the next day. The compound of the present invention was treated by the same way after 5 days of transplantation.
(§7) The fertility condition of Monochoria vaginalis 14 days and rice 21 days after the treatment of the compound of the invention with the naked eye.

Monochoria vaginalis [4] = assay: Weed control effect evaluation in rice field; type: in vivo; details: 1000 g/ha, paddy water application at 0.5 leaf stage, 14 days after treatment, weeds resistant to pyrazosulfuron-ethyl and penoxsulam
Description: as §1, §6
Rice field soil was loaded into a 1/1,000,000 ha pot. The seeds of Monochoria vaginalis were sowed and gently covered with soil, then left to stand still in greenhouse in the state of 0.5-1 cm of water storage. It was kept at 3-4 cm of water storage thereafter. The weeds were treated by dripping the WP or SC water diluents prepared according to the common preparation method of the compounds of the present invention with pipette homogeneously to achieve specified effective amount when Monochoria vaginalis reached 0. 5 leaf stage.
as §7
Note: The seeds of Monochoria vaginalis were collected from Heilongjing Province of China.

[5] = 600 g/ha active ingredient, plus water 450 kg/ha

Structure (SMILES): CC(Oc1nc(F)c(Cl)c(N)c1Cl)C(=O)O (stereo not drawn) [Control compound A, reference compound]
- Japonica rice, activity level (growth inhibition rate) (Japonica rice; 300 g/ha): 3 (Level 3: the growth inhibition rate is equal to or greater than 40% and less than 60%)
- Japonica rice, activity level (growth inhibition rate) (Japonica rice; [5]): 3 (Level 3: the growth inhibition rate is equal to or greater than 40% and less than 60%)
- Indica rice, activity level (growth inhibition rate) (Indica rice; 300 g/ha): 2 (Level 2: the growth inhibition rate is equal to or greater than 20% and less than 40%)
- Indica rice, activity level (growth inhibition rate) (Indica rice; [5]): 3 (Level 3: the growth inhibition rate is equal to or greater than 40% and less than 60%)
- safety and selectivity in rice (rice): poor safety and low selectivity in rice
- ALS resistant Cyperus iria, activity level (growth inhibition rate) ([1]; 300 g/ha): 4 (Level 4: the growth inhibition rate is equal to or greater than 60% and less than 85%)
- ALS resistant Cyperus iria, activity level (growth inhibition rate) [1, 5]: 5 (Level 5: the growth inhibition rate is greater than 85%)
- ALS resistant Echinochloa crusgalli, activity level (growth inhibition rate) ([2]; 300 g/ha): 4 (Level 4: the growth inhibition rate is equal to or greater than 60% and less than 85%)
- ALS resistant Echinochloa crusgalli, activity level (growth inhibition rate) [2, 5]: 5 (Level 5: the growth inhibition rate is greater than 85%)

Structure (SMILES): CCCCC(CC)CSC(=O)C(C)Oc1nc(F)c(Cl)c(N)c1Cl (stereo not drawn) [Compound 74]
- Activity level (growth inhibition rate) Monochoria Vaginalis (Monochoria vaginalis [3]): 5 (Level 5: the growth inhibition rate is greater than 85%)
- Activity level (growth inhibition rate) Digitaria sanguinalis (Digitaria sanguinalis): 5 (Level 5: the growth inhibition rate is greater than 85%)
- Activity level (growth inhibition rate) Abutilon theophrasti (Abutilon theophrasti): 5 (Level 5: the growth inhibition rate is greater than 85%)
- Activity level (growth inhibition rate) Galium spurium (Galium spurium): 5 (Level 5: the growth inhibition rate is greater than 85%)
- Activity level (growth inhibition rate) Setaria viridis (Setaria viridis): 5 (Level 5: the growth inhibition rate is greater than 85%)
- Activity level (growth inhibition rate) Leptochloa chinensis (Leptochloa chinensis): 5 (Level 5: the growth inhibition rate is greater than 85%)
- Rice, activity standard level 0-5 (safety) (rice (japonica rice)): 0 (Level 0: the growth inhibition rate is less than 5%)
- Monochoria Vaginalis, activity standard level 0-5 (Monochoria vaginalis [4]): 5 (Level 5: the growth inhibition rate is greater than 85%)
- Japonica rice, activity level (growth inhibition rate) (Japonica rice; [5]): 0 (Level 0: the growth inhibition rate is less than 5%)
- Indica rice, activity level (growth inhibition rate) (Indica rice; [5]): 0 (Level 0: the growth inhibition rate is less than 5%)
- ALS resistant Cyperus iria, activity level (growth inhibition rate) [1, 5]: 5 (Level 5: the growth inhibition rate is greater than 85%)
- ALS resistant Echinochloa crusgalli, activity level (growth inhibition rate) [2, 5]: 5 (Level 5: the growth inhibition rate is greater than 85%)

Structure (SMILES): CC(Cl)CCSC(=O)C(C)Oc1nc(F)c(Cl)c(N)c1Cl (stereo not drawn) [Compound 77]
- Activity level (growth inhibition rate) Monochoria Vaginalis (Monochoria vaginalis [3]): 5 (Level 5: the growth inhibition rate is greater than 85%)
- Activity level (growth inhibition rate) Digitaria sanguinalis (Digitaria sanguinalis): 5 (Level 5: the growth inhibition rate is greater than 85%)
- Activity level (growth inhibition rate) Abutilon theophrasti (Abutilon theophrasti): 5 (Level 5: the growth inhibition rate is greater than 85%)
- Activity level (growth inhibition rate) Galium spurium (Galium spurium): 5 (Level 5: the growth inhibition rate is greater than 85%)
- Activity level (growth inhibition rate) Setaria viridis (Setaria viridis): 5 (Level 5: the growth inhibition rate is greater than 85%)
- Activity level (growth inhibition rate) Leptochloa chinensis (Leptochloa chinensis): 5 (Level 5: the growth inhibition rate is greater than 85%)
- Rice, activity standard level 0-5 (safety) (rice (japonica rice)): 0 (Level 0: the growth inhibition rate is less than 5%)
- Monochoria Vaginalis, activity standard level 0-5 (Monochoria vaginalis [4]): 5 (Level 5: the growth inhibition rate is greater than 85%)
- Japonica rice, activity level (growth inhibition rate) (Japonica rice; [5]): 0 (Level 0: the growth inhibition rate is less than 5%)
- Indica rice, activity level (growth inhibition rate) (Indica rice; [5]): 0 (Level 0: the growth inhibition rate is less than 5%)
- ALS resistant Cyperus iria, activity level (growth inhibition rate) [1, 5]: 5 (Level 5: the growth inhibition rate is greater than 85%)
- ALS resistant Echinochloa crusgalli, activity level (growth inhibition rate) [2, 5]: 5 (Level 5: the growth inhibition rate is greater than 85%)

Structure (SMILES): CSC(=O)C(C)Oc1nc(F)c(Cl)c(NCc2ccco2)c1Cl (stereo not drawn) [Compound 130]
- Activity level (growth inhibition rate) Monochoria Vaginalis (Monochoria vaginalis [3]): 5 (Level 5: the growth inhibition rate is greater than 85%)
- Activity level (growth inhibition rate) Digitaria sanguinalis (Digitaria sanguinalis): 5 (Level 5: the growth inhibition rate is greater than 85%)
- Activity level (growth inhibition rate) Abutilon theophrasti (Abutilon theophrasti): 5 (Level 5: the growth inhibition rate is greater than 85%)
- Activity level (growth inhibition rate) Galium spurium (Galium spurium): 5 (Level 5: the growth inhibition rate is greater than 85%)
- Activity level (growth inhibition rate) Setaria viridis (Setaria viridis): 5 (Level 5: the growth inhibition rate is greater than 85%)
- Activity level (growth inhibition rate) Leptochloa chinensis (Leptochloa chinensis): 5 (Level 5: the growth inhibition rate is greater than 85%)
- Rice, activity standard level 0-5 (safety) (rice (japonica rice)): 0 (Level 0: the growth inhibition rate is less than 5%)
- Monochoria Vaginalis, activity standard level 0-5 (Monochoria vaginalis [4]): 5 (Level 5: the growth inhibition rate is greater than 85%)
- Japonica rice, activity level (growth inhibition rate) (Japonica rice; [5]): 0 (Level 0: the growth inhibition rate is less than 5%)
- Indica rice, activity level (growth inhibition rate) (Indica rice; [5]): 0 (Level 0: the growth inhibition rate is less than 5%)
- ALS resistant Cyperus iria, activity level (growth inhibition rate) [1, 5]: 5 (Level 5: the growth inhibition rate is greater than 85%)
- ALS resistant Echinochloa crusgalli, activity level (growth inhibition rate) [2, 5]: 5 (Level 5: the growth inhibition rate is greater than 85%)

Structure (SMILES): COC(=O)OC(C)SC(=O)C(C)Oc1nc(F)c(Cl)c(N)c1Cl (stereo not drawn) [Compound 98]
- Activity level (growth inhibition rate) Monochoria Vaginalis (Monochoria vaginalis [3]): 5 (Level 5: the growth inhibition rate is greater than 85%)
- Activity level (growth inhibition rate) Digitaria sanguinalis (Digitaria sanguinalis): 5 (Level 5: the growth inhibition rate is greater than 85%)
- Activity level (growth inhibition rate) Abutilon theophrasti (Abutilon theophrasti): 5 (Level 5: the growth inhibition rate is greater than 85%)
- Activity level (growth inhibition rate) Galium spurium (Galium spurium): 5 (Level 5: the growth inhibition rate is greater than 85%)
- Activity level (growth inhibition rate) Setaria viridis (Setaria viridis): 5 (Level 5: the growth inhibition rate is greater than 85%)
- Activity level (growth inhibition rate) Leptochloa chinensis (Leptochloa chinensis): 5 (Level 5: the growth inhibition rate is greater than 85%)
- Rice, activity standard level 0-5 (safety) (rice (japonica rice)): 0 (Level 0: the growth inhibition rate is less than 5%)
- Monochoria Vaginalis, activity standard level 0-5 (Monochoria vaginalis [4]): 5 (Level 5: the growth inhibition rate is greater than 85%)
- Japonica rice, activity level (growth inhibition rate) (Japonica rice; [5]): 0 (Level 0: the growth inhibition rate is less than 5%)
- Indica rice, activity level (growth inhibition rate) (Indica rice; [5]): 0 (Level 0: the growth inhibition rate is less than 5%)
- ALS resistant Cyperus iria, activity level (growth inhibition rate) [1, 5]: 5 (Level 5: the growth inhibition rate is greater than 85%)
- ALS resistant Echinochloa crusgalli, activity level (growth inhibition rate) [2, 5]: 5 (Level 5: the growth inhibition rate is greater than 85%)
